Results: US20250188092A1, “RIFAMYCIN ANALOGS” (THE REGENTS OF THE UNIVERSITY OF MICHIGAN, priority 2021, published 2025)
Values after ≈ are worked out from the molar mass of the structure shown. Where two headings read alike, the source gives them in different places.

Experiments:
[1] = tested on: M. tuberculosis transformed with luxABCDE; assay: microbe, parasite or virus in culture; format: cell-based, Mycobacterium tuberculosis; conditions: for MBC: ≥99% reduction in luminescence, read-out: MBC99 Day 7 (Lux Assay) MBC
[2] = tested on: non-replicating cultures of M. tuberculosis H37Rv transformed with lux ABCDE; assay: microbe, parasite or virus in culture; format: cell-based, Mycobacterium tuberculosis; conditions: for MIC90: ≥90% reduction in luminescence, read-out: MIC90 LORA; for MIC90 LORA/MABA: ratio of LORA MIC90 to MABA MIC90
[3] = Mycobacterium tuberculosis, 168 h
[4] = Mycobacterium tuberculosis, H37RV

| SMILES | MBC99 Day 7 (Lux Assay) MBC Rel to RMP [1] | MBC [1, 3] [µM] | MIC90 [2, 4] [µM] | MIC90 LORA/MABA [2] | MIC90 LORA Rel to RMP [2] | MBC [1] [µM] | MIC90 [2] [µM] |
| --- | --- | --- | --- | --- | --- | --- | --- |
| CO[C@H]1/C=C/O[C@@]2(C)Oc3c(C)c(O)c4c(=O)c(c5oc6cc(N7CCN(CC(C)C)CC7)cc(OCc7ccc(CN8CCN(C)CC8)cc7)c6nc-5c4c3C2=O)NC(=O)/C(C)=C\C=C\[C@H](C)[C@H](O)[C@@H](C)[C@@H](O)[C@@H](C)[C@H](OC(C)=O)[C@@H]1C [Compound 17p, (7S,9E,11S,12R,13S,14R,15R,16R,17S,18S,19E,21Z)-2,15,17-trihydroxy-11-methoxy-3,7,12,14,16,18,22-heptamethyl-32-({4-[(4-methylpiperazin-1-yl)methyl]phenyl}methoxy)-30-[4-(2-methylpropyl)piperazin-1-yl]-6,23,37-trioxo-8,27,38-trioxa-24,34-diazahexacyclo-[23.11.1.1^4,7.0^5,36.0^26,35.0^28,33]octatriaconta-1,3,5(36)9,19,21,25,28,30,32,34-undecaen-13-yl acetate] | 0.20 | 0.092 | 0.035 | 3.7 | – | – | – |
| CO[C@H]1/C=C/O[C@@]2(C)Oc3c(C)c(O)c4c(=O)c(c5oc6cc(N7CCC(C(=O)O)CC7)cc(OCc7ccc(CN8CCN(C)CC8)cc7)c6nc-5c4c3C2=O)NC(=O)/C(C)=C\C=C\[C@H](C)[C@H](O)[C@@H](C)[C@@H](O)[C@@H](C)[C@H](OC(C)=O)[C@@H]1C [Compound 17q, 1-[(7S,9E,11S,12R,13S,14R,15R,16R,17S,18S,19E,21Z)-13-(acetyloxy)-2,15,17-trihydroxy-11-methoxy-3,7,12,14,16,18,22-heptamethyl-32-({4-[(4-methylpiperazin-1-yl)methyl]phenyl}methoxy)-6,23,37-trioxo-8,27,38-trioxa-24,34-diazahexacyclo-[23.11.1.1^4,7.0^5,36.0^26,35.0^28,33]-octatriaconta-1,3,5(36)9,19,21,25,28,30,32,34-undecaen-30-yl]piperidine-4-carboxylic acid] | – | > 0.1 | > 0.02 | – | – | – | – |
| CO[C@H]1/C=C/O[C@@]2(C)Oc3c(C)c(O)c4c(=O)c(c5oc6cc(N7CCN(C(=O)c8ccc9occc9c8)CC7)cc(OCc7ccc(CN8CCOCC8)cc7)c6nc-5c4c3C2=O)NC(=O)/C(C)=C\C=C\[C@H](C)[C@H](O)[C@@H](C)[C@@H](O)[C@@H](C)[C@H](OC(C)=O)[C@@H]1C [Compound 17s, (7S,9E,11S,12R,13S,14R,15R,16R,17S,18S,19E,21Z)-30-{4-[(1-benzofuran-5-yl)carbonyl]piperazin-1-yl}-2,15,17-trihydroxy-11-methoxy-3,7,12,14,16,18,22-heptamethyl-32-{[4-(morpholin-4-ylmethyl)phenyl]methoxy}-6,23,37-trioxo-8,27,38-trioxa-24,34-diazahexacyclo[23.11.1.1^4,7.0^5,36.0^26,35.0^28,33]octatriaconta-1,3,5(36)9,19,21,25,28,30,32,34-undecaen-13-yl acetate] | 0.19 | 0.084 | 0.03 | 1.7 | 0.60 | – | – |
| CO[C@H]1/C=C/O[C@@]2(C)Oc3c(C)c(O)c4c(=O)c(c5oc6cc(N7CCN(C(=O)c8ccc(-c9ccc(C(N)=O)cc9)cc8)CC7)cc(OCc7ccc(CN8CCOCC8)cc7)c6nc-5c4c3C2=O)NC(=O)/C(C)=C\C=C\[C@H](C)[C@H](O)[C@@H](C)[C@@H](O)[C@@H](C)[C@H](OC(C)=O)[C@@H]1C [Compound 17t, (7S,9E,11S,12R,13S,14R,15R,16R,17S,18S,19E,21Z)-30-(4-{[4-(4-carbamoylphenyl)-phenyl]carbonyl}piperazin-1-yl)-2,15,17-trihydroxy-11-methoxy-3,7,12,14,16,18,22-heptamethyl-32-{[4-(morpholin-4-ylmethyl)phenyl]methoxy}-6,23,37-trioxo-8,27,38-trioxa-24,34-diazahexacyclo[23.11.1.1^4,7.0^5,36.0^26,35.0^28,33]octatriaconta-1,3,5(36)9,19,21,25,28,30,32,34-undecaen-13-yl acetate] | 0.12 | – | – | 1.8 | 1.2 | 0.086 | 0.059 |
| CO[C@H]1/C=C/O[C@@]2(C)Oc3c(C)c(O)c4c(=O)c(c5oc6cc(N7CCN(C(C)=O)CC7)cc(C)c6nc-5c4c3C2=O)NC(=O)/C(C)=C\C=C\[C@H](C)[C@H](O)[C@@H](C)[C@@H](O)[C@@H](C)[C@H](OC(C)=O)[C@@H]1C [Compound 26d, (7S,9E,11S,12R,13S,14R,15R,16R,17S,18S,19E,21Z)-30-(4-Acetylpiperazin-1-yl)-2,15,17-trihydroxy-11-methoxy-3,7,12,14,16,18,22,32-octamethyl-6,23,37-trioxo-8,27,38-trioxa-24,34-diazahexacyclo[23.11.1.1^4,7.0^5,36.0^26,35.0^28,33]octatriaconta-1(36)2,4,9,19,21,25,28,30,32,34-undecaen-13-yl acetate] | – | > 0.1 | > 0.02 | – | – | – | – |
| CCC(=O)N1CCN(c2cc(C)c3nc4c5c6c7c(C)c(O)c5c(=O)c(c-4oc3c2)NC(=O)/C(C)=C\C=C\[C@H](C)[C@H](O)[C@@H](C)[C@@H](O)[C@@H](C)[C@H](OC(C)=O)[C@H](C)[C@@H](OC)/C=C/O[C@@](C)(O7)C6=O)CC1 [Compound 26e, (7S,9E,11S,12R,13S,14R,15R,16R,17S,18S,19E,21Z)-2,15,17-Trihydroxy-11-methoxy-3,7,12,14,16,18,22,32-octamethyl-6,23,37-trioxo-30-(4-propanoylpiperazin-1-yl)-8,27,38-trioxa-24,34-diazahexacyclo[23.11.1.1^4,7.0^5,36.0^26,35.0^28,33]octatriaconta-1(36)2,4,9,19,21,25,28,30,32,34-undecaen-13-yl acetate] | 0.19 | 0.087 | > 0.02 | – | – | – | – |
| CO[C@H]1/C=C/O[C@@]2(C)Oc3c(C)c(O)c4c(=O)c(c5oc6cc(N7CCN(C(=O)C(C)(C)C)CC7)cc(C)c6nc-5c4c3C2=O)NC(=O)/C(C)=C\C=C\[C@H](C)[C@H](O)[C@@H](C)[C@@H](O)[C@@H](C)[C@H](OC(C)=O)[C@@H]1C [Compound 26f, (7S,9E,11S,12R,13S,14R,15R,16R,17S,18S,19E,21Z)-30-[4-(2,2-Dimethylpropanoyl)piperazin-1-yl]-2,15,17-trihydroxy-11-methoxy-3,7,12,14,16,18,22,32-octamethyl-6,23,37-trioxo-8,27,38-trioxa-24,34-diazahexacyclo[23.11.1.1^4,7.0^5,36.0^26,35.0^28,33]octatriaconta-1(36)2,4,9,19,21,25,28,30,32,34-undecaen-13-yl acetate] | 0.09 | 0.043 | 0.0095 | 2.1 | 0.05 | – | – |
| COC(=O)N1CCN(c2cc(C)c3nc4c5c6c7c(C)c(O)c5c(=O)c(c-4oc3c2)NC(=O)/C(C)=C\C=C\[C@H](C)[C@H](O)[C@@H](C)[C@@H](O)[C@@H](C)[C@H](OC(C)=O)[C@H](C)[C@@H](OC)/C=C/O[C@@](C)(O7)C6=O)CC1 [Compound 26g, Methyl 4-[(7S,9E,11S,12R,13S,14R,15R,16R,17S,18S,19E,21Z)-13-(acetyloxy)-2,15,17-trihydroxy-11-methoxy-3,7,12,14,16,18,22,32-octamethyl-6,23,37-trioxo-8,27,38-trioxa-24,34-diazahexacyclo[23.11.1.1^4,7.0^5,36.0^26,35.0^28,33]octatriaconta-1(36)2,4,9,19,21,25,28,30,32,34-undecaen-30-yl]piperazine-1-carboxylate] | 0.09 | 0.043 (≈ 0.0405 µg/mL) | 0.0096 (≈ 0.00903 µg/mL) | 1.9 | 0.05 | – | – |
| CCOC(=O)N1CCN(c2cc(C)c3nc4c5c6c7c(C)c(O)c5c(=O)c(c-4oc3c2)NC(=O)/C(C)=C\C=C\[C@H](C)[C@H](O)[C@@H](C)[C@@H](O)[C@@H](C)[C@H](OC(C)=O)[C@H](C)[C@@H](OC)/C=C/O[C@@](C)(O7)C6=O)CC1 [Compound 26h, Ethyl 4-[(7S,9E,11S,12R,13S,14R,15R,16R,17S,18S,19E,21Z)-13-(acetyloxy)-2,15,17-trihydroxy-11-methoxy-3,7,12,14,16,18,22,32-octamethyl-6,23,37-trioxo-8,27,38-trioxa-24,34-diazahexacyclo[23.11.1.1^4,7.0^5,36.0^26,35.0^28,33]octatriaconta-1(36)2,4,9,19,21,25,28,30,32,34-undecaen-30-yl]piperazine-1-carboxylate] | 0.06 | 0.028 (≈ 0.0267 µg/mL) | 0.0094 (≈ 0.00898 µg/mL) | 1.9 | 0.05 | – | – |
| CO[C@H]1/C=C/O[C@@]2(C)Oc3c(C)c(O)c4c(=O)c(c5oc6cc(N7CCN(C(=O)OC(C)(C)C)CC7)cc(C)c6nc-5c4c3C2=O)NC(=O)/C(C)=C\C=C\[C@H](C)[C@H](O)[C@@H](C)[C@@H](O)[C@@H](C)[C@H](OC(C)=O)[C@@H]1C [Compound 26i, tert-Butyl 4-[(7S,9E,11S,12R,13S,14R,15R,16R,17S,18S,19E,21Z)-13-(acetyloxy)-2,15,17-trihydroxy-11-methoxy-3,7,12,14,16,18,22,32-octamethyl-6,23,37-trioxo-8,27,38-trioxa-24,34-diazahexacyclo[23.11.1.1^4,7.0^5,36.0^26,35.0^28,33]octatriaconta-1(36)2,4,9,19,21,25,28,30,32,34-undecaen-30-yl]piperazine-1-carboxylate] | 0.10 | 0.047 (≈ 0.0462 µg/mL) | 0.0093 (≈ 0.00914 µg/mL) | 2.0 | 0.05 | – | – |
